pIC50: −log10 of the molar value.
Columns and labels:
HeLa = assay: Cytotoxicity against human HeLa cells by MTT assay; format: functional, cell-based
Escherichia coli = assay: Antimicrobial activity against Escherichia coli after 16 hrs by broth microdilution method; format: functional
Candida albicans = assay: Antimicrobial activity against Candida albicans after 16 hrs by broth microdilution method; format: functional
Staphylococcus aureus = assay: Antimicrobial activity against methicillin-resistant Staphylococcus aureus after 16 hrs by broth microdilution method; format: functional
A549 = assay: Cytotoxicity against human A549 cells by MTT assay; format: functional, cell-based
Bacillus subtilis = assay: Antimicrobial activity against Bacillus subtilis after 16 hrs by broth microdilution method; format: functional

Compound	pIC50 (HeLa)	MIC (Escherichia coli) [µg/mL]	MIC (Candida albicans) [µg/mL]	MIC (Staphylococcus aureus) [µg/mL]	pIC50 (A549)	MIC (Bacillus subtilis) [µg/mL]
C[C@@H]1C[C@@H](O)[C@]2(O)O[C@@H]3C[C@@]4(C=O)[C@@H](CC[C@@H]5[C@@H]4CC[C@]4(C)[C@@H](C6=CC(=O)OC6)C[C@@H](O)[C@]54O)C[C@H]3O[C@@H]2C1	6.89	> 100	> 100	> 100	7.10	> 100
CO[C@@H]1C[C@@H](C)C[C@H]2O[C@@H]3C[C@@H]4CC[C@@H]5[C@H](CC[C@]6(C)[C@@H](C7=CC(=O)OC7)C[C@@H](O)[C@]56O)[C@@]4(C=O)C[C@H]3O[C@@]12O	6.98	> 100	> 100	> 100	7.19	> 100
C[C@@H]1C[C@@H](O)[C@]2(O)O[C@@H]3C[C@@]4(C)[C@@H](CC[C@@H]5[C@@H]4CC[C@]4(C)[C@@H](C6=CC(=O)OC6)C[C@@H](O)[C@]54O)C[C@H]3O[C@@H]2C1	6.18	> 100	> 100	> 100	6.46	> 100
C[C@H]1C[C@H]2O[C@@H]3C[C@@H]4CC[C@@H]5[C@H](CC[C@]6(C)[C@@H](C7=CC(=O)OC7)CC[C@]56O)[C@@]4(C=O)C[C@H]3O[C@@]2(O)[C@H](O)[C@@H]1O	7.06	> 100	> 100	> 100	7.24	> 100
C[C@H]1C[C@H]2O[C@@H]3C[C@@H]4CC[C@@H]5[C@H](CC[C@]6(C)[C@@H](C7=CC(=O)OC7)C[C@@H](O)[C@]56O)[C@@]4(C=O)C[C@H]3O[C@@]2(O)[C@@]2(C1)N=CCS2	6.50	> 100	> 100	> 100	6.80	> 100
C[C@]12[C@H](O)C[C@H]3[C@@H](CC[C@H]4C[C@H](O)CC[C@@]43CO)[C@@]1(O)CC[C@@H]2C1=CC(=O)OC1	5.94	> 100	> 100	> 100	6.22	> 100
C[C@]12[C@H](O)C[C@H]3[C@@H](CC[C@H]4C[C@H](O)CC[C@@]43C=O)[C@@]1(O)CC[C@@H]2C1=CC(=O)OC1	5.84	> 100	> 100	> 100	5.99	> 100
C[C@]12C[C@@H](O)[C@H](O)C[C@@H]1CC[C@@H]1[C@@H]2CC[C@]2(C)[C@@H](C3=CC(=O)OC3)C[C@@H](O)[C@]12O	5.61	> 100	> 100	> 100	5.77	> 100
C[C@]12[C@H](O)C[C@H]3[C@@H](CC[C@H]4C[C@@H](O)CC[C@@]43CO)[C@@]1(O)CC[C@@H]2C1=CC(=O)OC1	6.06	> 100	> 100	> 100	6.26	> 100
C[C@@H]1C[C@@H](O)[C@]2(O)O[C@@H]3C[C@@]4(C=O)[C@@H](CC[C@@H]5[C@@H]4CC[C@]4(C)[C@@H](C6=CC(=O)OC6)CC[C@]54O)C[C@H]3O[C@@H]2O1 [CALACTIN]	–	> 100	> 100	> 100	–	> 100
C[C@@H]1C[C@@]2(N=CCS2)[C@]2(O)O[C@@H]3C[C@@]4(C=O)[C@@H](CC[C@@H]5[C@@H]4CC[C@]4(C)[C@@H](C6=CC(=O)OC6)CC[C@]54O)C[C@H]3O[C@@H]2O1 [USCHARIN]	6.56	> 100	> 100	> 100	6.98	> 100
